Laboratory results taken from patent US6140362A, “Method for inhibiting the growth of mammalian cells” (Rohm and Haas Company, priority 1997, dated 2000).

Experiments:
[1] = tested on: mouse lymphoma cell line L5178Y; assay: Growth inhibition of mouse lymphoma cells (L5178Y), 48 h; format: cell-based; conditions: 48 hours; for inhibition at 2 µM: 2 micromolar; for inhibition at 10 µM: 10 micromolar, read-out: Inhibition of growth
Protocol: Effects of compounds on growth of mouse lymphoma cell line L5178Y, were determined as follows. Cells were grown in Fischer's medium (obtained from Life Technologies, Inc., Gaithersburg, Md.) containing 0.24 grams per liter (g/l) sodium pyruvate, 1.12 g/l surfactant (Pluronic F-68, from BASF Corporation, Parsippany, N.J.), and 10% by volume (10% v/v) heat-inactivated horse serum (obtained from Life Technologies, Inc) at 37° C. To 30 ml aliquots of cell suspension (2×10^4 cells per milliliter (mL)) in exponential growth phase were added test compounds dissolved in dimethylsulfoxide (DMSO) at various concentrations such that the final DMSO concentration in the mixtures was 0.25%. Tubes were gassed with 5% CO2 then incubated on a roller drum apparatus. After 48 hours the cells were treated with 0.1% trypsin (Life Technologies, Inc.,) for 10 minutes and counted in a Coulter Counter equipped with a 140 micrometer (μM) aperture. Percent inhibition of growth was calculated by comparing the number of cells in assays containing test compound with the number of cells in controls lacking the test compound.

Leukemia (SR) = assay: Growth inhibition of human tumor cell lines: Leukemia (SR); format: cell-based; conditions: cell line A = Leukemia (SR), NCI testing
Protocol: (§1) Selected compounds were evaluated by the National Cancer Institute, Bethesda, Md. against 60 human tumor cell lines according to procedures described in Principles and Practices of Oncology, volume 3, issue number 10, pp. 1-12. Results of the testing against representative cell lines including the test compound number, and the GI50 values (μM) are set forth in Table 3. The GI50 value is the concentration required to inhibit cell growth by 50% as compared to untreated control cultures.

[2] = tested on: Nonsmall cell lung cancer (NCIH522); assay: Growth inhibition of human tumor cell lines: Nonsmall cell lung cancer (NCIH522); format: cell-based; conditions: NCI-H522, cell line B = Nonsmall cell lung cancer (NCIH522), NCI testing
Protocol: as §1

[3] = tested on: Small cell lung cancer (DMS 114); assay: Growth inhibition of human tumor cell lines: Small cell lung cancer (DMS 114); format: cell-based; conditions: cell line C = Small cell lung cancer (DMS 114), NCI testing
Protocol: as §1

Colon cancer (HCT116) = assay: Growth inhibition of human tumor cell lines: Colon cancer (HCT116); format: cell-based; conditions: HCT-116, cell line D = Colon cancer (HCT116), NCI testing
Protocol: as §1

CNS cancer (SF539) = assay: Growth inhibition of human tumor cell lines: CNS cancer (SF539); format: cell-based; conditions: SF-539, cell line E = CNS cancer (SF539), NCI testing
Protocol: as §1

Melanoma (SKMEL-2) = assay: Growth inhibition of human tumor cell lines: Melanoma (SKMEL-2); format: cell-based; conditions: SK-MEL-2, cell line F = Melanoma (SKMEL-2), NCI testing
Protocol: as §1

Ovarian cancer (OVCAR8) = assay: Growth inhibition of human tumor cell lines: Ovarian cancer (OVCAR8); format: cell-based; conditions: OVCAR-8, cell line G = Ovarian cancer (OVCAR8), NCI testing
Protocol: as §1

Renal cancer (CAKI1) = assay: Growth inhibition of human tumor cell lines: Renal cancer (CAKI1); format: cell-based; conditions: CAKI-1, cell line H = Renal cancer (CAKI1), NCI testing
Protocol: as §1

mouse lymphoma cells = assay: Effect on mitosis in mouse lymphoma cells (visible chromosomes); format: cell-based; conditions: 2 μM, 7 hours
Protocol: Compound 14 was dissolved in DMSO at 0.8 mM and 75 microliters (μL) of this solution was added to tubes containing 30 ml of cell suspension at 1.2×10^5 /mL grown under the conditions described in Example 1. Cells in control tubes received 75 μL of DMSO alone. Tubes were gassed with 5% CO2, then incubated on a roller drum apparatus for 7 hours. The cells were treated with hypotonic medium (3-fold diluted growth medium) and fixed in acetic acid:methanol (1:3, v/v). After staining with aceto-orcein (method described in L. La Cour, Stain Technology, vol. 16, pp. 169-174 (1941)) the percentage of cells with visible chromosomes in treated and control cells was determined based on examination of 400 cells per sample.

tubulin [4] = assay: Inhibition of microtubule assembly; format: biochemical, calf; conditions: 50 μM, preincubated 1 h at 37° C.
Protocol: (§2) Compounds were evaluated for their ability to inhibit tubulin assembly into microtubules by comparing the extent of cold-reversible assembly in the presence of each test compound with controls lacking the test compound. Tubulin was isolated from calf brain tissue by two cycles of assembly/disassembly as described by Vallee, R. B. in Methods in Enzymology, vol. 134, pp. 89-104. Assay mixtures contained 1 mg/ml of purified tubulin in 1 M sodium glutamate, pH 6.6, 1 millimolar (mM) MgCl2, and the test compound, which was added as a solution in DMSO. The final concentration of DMSO in each assay was 2% (v/v). Assay mixtures were preincubated at 37° C. for 1 h, then chilled on ice for 5 min. Microtubule assembly was initiated by addition of guanosine triphosphate (0.1 mM), and incubation at 37° C. Assembly was followed turbidimetrically at 350 nm for 20 minutes (min) using a temperature-controlled cell in a Cary 2200 spectrophotometer. Since microtubules undergo depolymerization at 0° C., assembly was confirmed by measuring the reduction in turbidity following incubation for 30 min at 0° C. The difference in absorbance before and after incubation for 30 min at 0° C. (ΔA350) represents the extent of microtubule assembly. Inhibition of assembly was calculated by subtracting the (ΔA350) values for treatments with test compounds from the (ΔA350) for controls without test compound, and expressing this difference as a percentage of the (ΔA350) value for the control. Results including test compound number, test compound concentration in micromoles per liter (μM) and percent inhibition are set forth in Table 11.

tubulin [5] = assay: Effect of preincubation time with tubulin on inhibition of microtubule assembly; format: biochemical, calf; conditions: 16 μM
Protocol: as §2
Compound 14 (16 μM) was preincubated with tubulin under the conditions described in Example 4 for 0, 1, 2, 4 and 6 hours before initiating assembly by addition of guanosine triphosphate (0.1 mM), and incubation at 37° C. Inhibition of assembly was determined as in Example 4, and results including preincubation time and percent inhibition of assembly are set forth in Table 12.

[6] = Biological activity of enantiomers; conditions: vs corresponding R enantiomers; test not stated

SMILES | inhibition at 2 µM [1] [%] | GI50 (Leukemia (SR)) [nM] | GI50 [2] [nM] | GI50 [3] [nM] | GI50 (Colon cancer (HCT116)) [µM] | GI50 (CNS cancer (SF539)) [nM] | GI50 (Melanoma (SKMEL-2)) [nM] | GI50 (Ovarian cancer (OVCAR8)) [µM] | GI50 (Renal cancer (CAKI1)) [µM] | Normal mitotic figures in treated cells (mouse lymphoma cells; vs control) | Number of cells with visible chromosomes (mouse lymphoma cells; vs control) | Percentage of cells with visible chromosomes (mouse lymphoma cells; control 3.9) [Percentage] | Percent inhibition of microtubule assembly (tubulin [4]) [%] | Percent inhibition of microtubule assembly (tubulin [5]; preincubation time 0 h) [%] | Percent inhibition of microtubule assembly (tubulin [5]; preincubation time 1 h) [%] | Percent inhibition of microtubule assembly (tubulin [5]; preincubation time 2 h) [%] | Percent inhibition of microtubule assembly (tubulin [5]; preincubation time 4 h) [%] | Percent inhibition of microtubule assembly (tubulin [5]; preincubation time 6 h) [%] | inhibition at 10 µM [1] [%] | Activity of S enantiomer relative to R enantiomer [6]
CCC(C)(NC(=O)c1cc(Cl)cc(Cl)c1)C(=O)CCl (stereo not shown) [Compound 14] | 95 | 830 | 1980 | 720 | 2.31 | 2100 | 1940 | 2.79 | 3.83 | lacking in the treated cells | produced an increase in the number of cells with visible chromosomes | 27.4 | 56.3 | 0 | 5.1 | 22.6 | 57.6 | 87.2 | – | –
CC(C)(NC(=O)c1cc(Cl)cc(Cl)c1)C(=O)C(Br)Br [Compound 17] | 97 | 1790 | 1040 | 2090 | 3.65 | 2250 | 2710 | 3 | 2.37 | – | – | – | 85.9 | – | – | – | – | – | – | –
CCC(C)(NC(=O)c1cc(C)cc(C#N)c1)C(=O)CCl (stereo not shown) [Compound 23] | – | 650 | 2050 | 2190 | 3.28 | 2550 | 2560 | 3.43 | 2.81 | – | – | – | 50.5 | – | – | – | – | – | 95 | –
CCC(C)(NC(=O)c1cc(Cl)cc(Cl)c1)C(=O)CSC#N (stereo not shown) [Compound 26] | – | 5690 | 3770 | 3710 | 4.85 | 3450 | 12200 | 11.9 | 13.3 | – | – | – | 56.6 | – | – | – | – | – | 67 | –
CC(C)(NC(=O)c1cc(Cl)cc(Cl)c1)C(=O)CCl [Compound 28] | – | 3010 | 2610 | 5380 | 14.2 | 9790 | 12200 | 12.4 | 12.9 | – | – | – | 22.3 | – | – | – | – | – | 87 | –
CCC(C)(NC(=O)c1cncc(Br)c1)C(=O)CCl (stereo not shown) [Compound 44] | 95 | 330 | 350 | 330 | 0.67 | 2210 | 410 | 1.96 | 2.36 | – | – | – | 100.0 | – | – | – | – | – | – | –
CC[C@](C)(NC(=O)c1cc(Cl)cc(Cl)c1)C(=O)CCl [S enantiomer of compound 14] | – | – | – | – | – | – | – | – | – | – | – | – | – | – | – | – | – | – | – | more active
CC[C@](C)(NC(=O)c1cc(Cl)c(C)c(Cl)c1)C(=O)CCl [S enantiomer of compound 32] | – | – | – | – | – | – | – | – | – | – | – | – | – | – | – | – | – | – | – | more active
